According to patent publication US10370391B2, “Hydrogen peroxide-activable, anti-oxidant compounds and methods using same” (Beth Israel Deaconess Medical Center, Inc., priority 2014, dated 2019):

Legend:
hepatic I/R injury = assay: Mouse model of hepatic I/R injury; format: in vivo; conditions: ip at reperfusion
Method: FIG. 5, comprising FIGS. 5A-5D, is a set of images and bar graphs illustrating beneficial effects of BRAP in hepatic I/R (1 hour ischemia/12 hour reperfusion) injury. FIG. 5A: Hematoxylin and eosin (H/E) staining, DHE staining, and TUNEL staining of mouse liver after injection with HBA or BRAP. FIGS. 5B-5D: Quantitative analysis of serum ALT levels (FIG. 5B), cleaved caspase-3 protein expression (FIG. 5C), and TNF-α protein expression (FIG. 5D) after I/R injury. *p<0.01 relative to Veh I/R. †p<0.05 relative to HBA I/R (n=3˜4/group). Actin protein expression was used as an internal control for protein loading.
Experiments to evaluate whether BRAP reduces ROS generation and inhibits apoptosis were performed in a mouse model of […] I/R injuries. I/R was induced first by 1 hour of ligation of hepatic artery and portal vein followed by reperfusion of hepatic artery. BRAP or HBA was then administrated intraperitoneally (ip) at the time of reperfusion.
Hepatic I/R surgery was performed in 12 week-old male mice. Briefly, mice were anaesthetized, and midline incision was performed for laparotomy. After identifying the portal triad and biliary tree, the main trunk of hepatic artery and portal vein were clamped with vascular clip except for the vasculatures to the right lower lobe to achieve ischemic injury to approximately 70% of the liver. After 1 hour of ischemia, reperfusion was achieved by releasing the vascular clip. No vascular clamp was done for the sham group of mice.
(§1) For liver apoptosis assay, terminal deoxynucleotidyl transferase dUTP nick end labeling (TUNEL) staining was performed using a DeadEnd™ Fluorometric TUNEL kit (Promega, Madison, Wis.). Tissue sections were stained for nuclei (4′,6-diamidino-2-phenylindole (DAPI) staining) and apoptotic nuclei (TUNEL staining) and analyzed using a confocal laser scanning microscope. For heart tissues, TUNEL staining was performed using in situ cell death detection Kit, fluorescein (Roche Applied Science, Indianapolis, Ind.). To distinguish cardiomyocyte from non-cardiomyocyte nuclei, triple stain for nuclei (DAPI staining), apoptotic nuclei (TUNEL staining), and cardiomyocytes (α-Actinin staining) was used, and the stained sections were analyzed using confocal microscopy. A minimum of ˜10 high power fields with ˜2000 nuclei/field were counted for each sample.
Heart tissues were collected for molecular analyses were performed in Bae, et al., 2010, Am J Physiol Heart Circ Physiol 299:H1374. For RT-PCR ribosomal 18S primers acted as internal controls and all RT-PCR signals were normalized to the 18S signal of the corresponding RT products. For Western blot analysis, the protein content was measured using BCA assay. Actin protein expression was used as an internal control for protein loading.
The optimal cutting temperature (OCT)-embedded tissues were fixed in 4% paraformaldehyde. Tissue sections were incubated with 5 μM dihydroethidium (DHE, Sigma-Aldrich) at 37° C. for 30 min in a humidified chamber protected from light. Then, 4′,6-diamidino-2-phenylindole (DAPI) was applied. Images were acquired by confocal fluorescence microscope.

cardiac I/R injury = assay: Mouse model of cardiac I/R injury; format: in vivo
Method: The beneficial effects of BRAP were further investigated using a mouse model of cardiac I/R injury in vivo. After 45 minutes of ischemia, BRAP (1.5 mg/kg) or vehicle was administered i.p. at the time of reperfusion, and then daily (1.5 mg/kg/day) for 2 weeks. For cardiac functional analysis, pressure-volume (PV) loop measurement and echocardiography were performed at 2 weeks after I/R surgery.
Studies were then performed to determine whether the benefits of BRAP after I/R were associated with attenuation of oxidative stress, inflammation, and apoptosis. These mechanistic analyses were performed in heart tissues 24 hours after cardiac I/R injury. […] BRAP administration decreased TNF-α and MCP-1 expressions compared with vehicle-treated mice.
Cardiac I/R surgery was performed in 12 week-old male mice as described in Choudhury, et al., 2011, Basic Res Cardiol 106:397. Briefly, mice were anaesthetized and placed on a rodent ventilator (model 687, Harvard Respirator). After thoracotomy, the left anterior descending artery (LAD) artery was identified and ligated with a 7-0 silk suture tied around a specialized 30 G-catheter. The animal remained under anesthesia and ventilation for 45 min of ischemia, after which reperfusion was achieved by cutting the suture and re-establishing arterial perfusion. Sham operated mice underwent the same procedure without LAD occlusion.
Cardiac function was evaluated using the pressure-volume loop measurement and echocardiography 2 weeks after I/R as described in Lee, et al., 2013, Sci Rep 3:2233. Pressure-volume parameters were measured after isoflurane (2%) inhalant anesthesia using a 1.4 Fr. micro-tip pressure-volume catheter (Scisense Inc, Ontario, Canada) inserted into the right common carotid artery. The catheter was gently advanced into the left ventricle to obtain LV hemodynamic parameters. Data was recorded using a Powerlab system (ADInstruments, Colorado Springs, Colo.). Beat by beat pressure-volume parameters including heart rate (HR), stroke volume (SV), stroke work (SW) and cardiac output (CO) were measured and analyzed using CardioSoft Pro software (CardioSoft, Houston, Tex.). Transthoracic echocardiography was performed using a Vevo2100 ultra-high frequency small animal imaging system with MS400 transducer (18-38 MHz) (Visualsonics, Toronto, Canada).
as §1
The activity of caspase-3 was determined with colorimetric assay kit (R&D Systems, Minneapolis, Minn.) as described in Choudhury, et al., 2011, Basic Res Cardiol 106:397; Bae, et al., 2010, Am J Physiol Heart Circ Physiol 299:H1374. Briefly, protein samples were added to substrates of Acetyl-Asp-Glu-Val-Asp-p-nitroanilide. The enzyme-catalyzed release of p-nitroanilide was measured at 405 nm. For PARP activity assay, activity was measured at 450 nm by incorporation of biotinylated poly (ADP-ribose) onto histone-coated proteins in plate using colorimetric assay kit (R&D Systems, Minneapolis, Minn., USA).
Heart tissues were collected for molecular analyses were performed in Bae, et al., 2010, Am J Physiol Heart Circ Physiol 299:H1374. […]

[1] = 1.5 mg/kg i.p. at reperfusion then daily for 2 weeks
[2] = 24 hours after I/R, compared with vehicle-treated mice

## CC1(CO)COB(c2ccc(CO)cc2)OC1 [BRAP, (4-(5-(hydroxymethyl)-5-methyl-1,3,2-dioxaborinan-2-yl)phenyl)methanol]
Hepatic I/R injury
  ROS generation (DHE staining) in liver: higher inhibitory effects on ROS generation than HBA
  protection from I/R-induced liver damage (serum ALT): concentration-dependent protection
Hepatic I/R injury; 1 hour ischemia/12 hour reperfusion, same dose of HBA and BRAP
  hepatic damages (histology, H/E): significant attenuation
Hepatic I/R injury; same dose of HBA and BRAP
  TNF-α protein expression: significant inhibition
  cleaved caspase-3 protein expression: significant inhibition
  hepatic apoptosis (TUNEL): significantly greater anti-apoptotic effects than HBA
Cardiac I/R injury; [1]
  I/R-induced cardiac dysfunction by PV loop analysis (CO, SW, EF): significantly attenuated
  I/R-induced cardiac dysfunction by echocardiography (FS): significantly attenuated
Cardiac I/R injury; 24 hours after I/R
  TUNEL-positive cardiomyocytes (apoptosis): effectively inhibited
  caspase-3 activation in heart: effectively reduced
Cardiac I/R injury; [2]
  MCP-1 mRNA expression in heart: decreased
  TNF-α mRNA expression in heart: decreased
Cardiac I/R injury; heart tissue 24 hours after I/R
  DHE staining (ROS generation) in heart: significantly decreased
